The record followed here is patent USRE38132E1, “Phenylpyrrolidines, phenylimidazolidines,3-phenyl-1,3-oxizolidines and 3-phenyl-1,3-thiazolidines and their use in the treatment of inflammatory disease” (Boehringer Ingelheim Pharmaceuticals, Inc., priority 1997, dated 2003).

The target of this assay is T1, interaction of ICAM-1 with the Leukointegrin CD18/CD11a (LFA-1) (Homo sapiens, UniProt P05107+P20701).
T1 construct: endogenous in cells; sICAM-1: made in house, secreted from transfected CHO DUX cells
T1 sequence (P20701 26-1170): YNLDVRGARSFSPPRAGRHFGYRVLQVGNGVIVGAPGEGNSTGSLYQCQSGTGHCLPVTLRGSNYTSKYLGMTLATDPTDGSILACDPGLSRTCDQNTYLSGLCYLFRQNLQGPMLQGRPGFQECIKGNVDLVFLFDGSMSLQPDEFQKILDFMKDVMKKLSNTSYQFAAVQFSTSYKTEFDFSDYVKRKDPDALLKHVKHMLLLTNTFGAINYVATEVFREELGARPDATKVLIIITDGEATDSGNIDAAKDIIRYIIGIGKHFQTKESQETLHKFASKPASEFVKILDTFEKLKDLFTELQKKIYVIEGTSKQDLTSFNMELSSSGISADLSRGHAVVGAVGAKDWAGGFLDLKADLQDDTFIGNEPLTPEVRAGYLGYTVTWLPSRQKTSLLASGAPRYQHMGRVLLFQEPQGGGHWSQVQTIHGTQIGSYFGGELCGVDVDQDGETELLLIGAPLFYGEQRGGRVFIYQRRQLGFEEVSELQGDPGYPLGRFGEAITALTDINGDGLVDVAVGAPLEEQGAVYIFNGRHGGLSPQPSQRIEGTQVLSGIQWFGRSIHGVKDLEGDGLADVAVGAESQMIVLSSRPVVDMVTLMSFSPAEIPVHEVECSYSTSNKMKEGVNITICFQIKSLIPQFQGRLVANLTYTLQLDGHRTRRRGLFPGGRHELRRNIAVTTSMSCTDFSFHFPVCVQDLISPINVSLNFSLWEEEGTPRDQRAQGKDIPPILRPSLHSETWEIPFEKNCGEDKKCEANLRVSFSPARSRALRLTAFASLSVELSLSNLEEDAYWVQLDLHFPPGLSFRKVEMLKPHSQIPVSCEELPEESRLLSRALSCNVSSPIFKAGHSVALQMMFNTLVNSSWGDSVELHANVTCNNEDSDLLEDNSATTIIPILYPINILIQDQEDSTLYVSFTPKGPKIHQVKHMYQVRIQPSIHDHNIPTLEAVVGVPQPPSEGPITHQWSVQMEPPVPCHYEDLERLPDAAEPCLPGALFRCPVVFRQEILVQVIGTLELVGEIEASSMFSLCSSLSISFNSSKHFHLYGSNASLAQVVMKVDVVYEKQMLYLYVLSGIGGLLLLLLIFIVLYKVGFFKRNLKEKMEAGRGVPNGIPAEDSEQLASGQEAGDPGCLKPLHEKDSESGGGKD
T1 sequence (P05107 23-769): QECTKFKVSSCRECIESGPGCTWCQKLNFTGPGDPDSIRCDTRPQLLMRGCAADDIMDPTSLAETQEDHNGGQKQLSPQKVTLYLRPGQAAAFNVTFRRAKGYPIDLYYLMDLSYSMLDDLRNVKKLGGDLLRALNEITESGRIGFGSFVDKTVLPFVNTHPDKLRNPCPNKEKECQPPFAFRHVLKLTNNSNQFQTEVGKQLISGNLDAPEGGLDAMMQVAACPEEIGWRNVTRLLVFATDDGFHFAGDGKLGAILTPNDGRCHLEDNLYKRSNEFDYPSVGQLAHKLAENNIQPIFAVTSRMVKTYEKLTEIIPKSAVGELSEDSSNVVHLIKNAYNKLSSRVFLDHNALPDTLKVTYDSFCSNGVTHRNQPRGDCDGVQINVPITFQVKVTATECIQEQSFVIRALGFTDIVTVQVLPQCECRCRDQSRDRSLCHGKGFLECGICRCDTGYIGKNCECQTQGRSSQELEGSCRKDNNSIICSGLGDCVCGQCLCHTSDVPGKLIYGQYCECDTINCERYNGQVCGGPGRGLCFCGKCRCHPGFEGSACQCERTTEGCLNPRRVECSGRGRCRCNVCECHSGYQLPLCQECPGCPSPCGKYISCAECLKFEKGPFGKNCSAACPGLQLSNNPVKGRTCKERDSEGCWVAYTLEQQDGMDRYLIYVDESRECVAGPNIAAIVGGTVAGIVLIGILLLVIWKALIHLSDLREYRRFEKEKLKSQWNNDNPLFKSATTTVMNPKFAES
The experiment in a line: Assay to determine inhibition of LFA-1 binding to ICAM-1 (immunopurified LFA-1 on plate-bound sICAM-1, ELISA readout). To be noted: values marked e approximated from incomplete dose-response curve. Background: In an ELISA, binding on a coated surface is turned into a signal by an enzyme label.
For orientation: Kd means the constant that tells how readily two partners part at equilibrium. Lower therefore signals a tighter complex. The molecule `O=C(c1ccccc1)c1ccc(CC2NC(=O)N(c3cc(Cl)cc(Cl)c3)C2=O)cc1` (centres unmarked) [Example 1] had a Kd of 1640 nM.

Consider `CC1(Cc2cccc(O)c2)NC(=O)N(c2cc(Cl)cc(Cl)c2)C1=O` (centres unmarked) [Example 11], for which the affinity, expressed as Kd, was 6300 nM.

For the molecule `O=C1NC(C(c2ccccc2)c2ccccc2)C(=O)N1c1cc(Cl)cc(Cl)c1` (centres unmarked) [Example 13], the Kd was 1960 nM.

With `O=C1NC(Cc2ccc(Br)cc2)C(=O)N1c1cc(Cl)cc(Cl)c1` (centres unmarked) [Example 19], the affinity, expressed as Kd, was 760 nM.

`CC(N)(Cc1c[nH]c2ccccc12)C(=O)O` (centres unmarked) [Example 25] returned a Kd of 3080 nM.

On to `O=C1NC(Cc2ccsc2)C(=O)N1c1cc(Cl)cc(Cl)c1` (centres unmarked) [Example 26], for which binding was put at a Kd of 2750 nM.

`CC1(Cc2csc3ccccc23)NC(=O)N(c2cc(Cl)cc(Cl)c2)C1=O` (centres unmarked) [Example 27] returned a Kd of about 52000 nM.

On to `CCC1(Cc2ccccc2)NC(=O)N(c2cc(Cl)cc(Cl)c2)C1=O` (centres unmarked) [Example 30], for which the Kd is 1480 nM.

On to `CCCC1(Cc2ccccc2)NC(=O)N(c2cc(Cl)cc(Cl)c2)C1=O` (centres unmarked) [Example 31], for which the Kd came to 1360 nM.

For the molecule `CC(C)C1(Cc2ccccc2)NC(=O)N(c2cc(Cl)cc(Cl)c2)C1=O` (centres unmarked) [Example 32], the Kd is 12100 nM.

Regarding `CC1(Cc2ccccc2)C(=O)N(c2cc(Cl)cc(Cl)c2)C(=O)N1C1CCCCC1` (centres unmarked) [Example 33], the Kd worked out at 940 nM.

In the case of `C[C@]1(Cc2ccc(Br)cc2)NC(=O)N(c2cccc(Cl)c2)C1=O` [Example 36], the Kd amounted to 4050 nM.

Take `Cc1cccc(C)c1CC1(C)NC(=O)N(c2cc(Cl)cc(Cl)c2)C1=O` (centres unmarked) [Example 38]: the Kd was determined as 1150 nM.

The molecule `C[C@]1(Cc2c[nH]c3ccccc23)NC(=O)N(c2cc(Cl)cc(Cl)c2)C1=O` [Example 42] came in with a Kd of 600 nM.

`COC(=O)c1ccc(CC2(C)NC(=O)N(c3cc(Cl)cc(Cl)c3)C2=O)cc1` (centres unmarked) [Example 46] registered a dissociation constant (Kd) of 2260 nM.

Turning to `CC(C)(C)C(=O)c1ccc(CC2(C)NC(=O)N(c3cc(Cl)cc(Cl)c3)C2=O)cc1` (centres unmarked) [Example 47], the affinity, expressed as Kd, was 4310 nM.

Consider `CC1(Cc2ccccc2Br)NC(=O)N(c2cc(Cl)cc(Cl)c2)C1=O` (centres unmarked) [Example 48], for which the affinity, expressed as Kd, was 1750 nM.

`CC1(Cc2ccc(C(F)(F)F)cc2)NC(=O)N(c2cc(Cl)cc(Cl)c2)C1=O` (centres unmarked) [Example 51] came in with a Kd of 430 nM.

The molecule `CC1(Cc2ccc(C(C)(C)C)cc2)NC(=O)N(c2cc(Cl)cc(Cl)c2)C1=O` (centres unmarked) [Example 52] registered a Kd of 1590 nM.

As to `CC1(Cc2cccc(C(F)(F)F)c2)NC(=O)N(c2cc(Cl)cc(Cl)c2)C1=O` (centres unmarked) [Example 53], the Kd came to 1470 nM.

For `CC1(Cc2cccc(Oc3ccccc3)c2)NC(=O)N(c2cc(Cl)cc(Cl)c2)C1=O` (centres unmarked) [Example 56], the equilibrium dissociation constant (Kd) was determined as 480 nM.

Regarding `CC1(Cc2ccc(OC(F)(F)F)cc2)NC(=O)N(c2cc(Cl)cc(Cl)c2)C1=O` (centres unmarked) [Example 57], the Kd was found to be 360 nM.

In turn, `CC1(Cc2cc(F)cc(F)c2)NC(=O)N(c2cc(Cl)cc(Cl)c2)C1=O` (centres unmarked) [Example 58] returned a Kd of 2850 nM.

In turn, `CCCCOc1cc(CC2(C)NC(=O)N(c3cc(Cl)cc(Cl)c3)C2=O)nc(C(F)(F)F)c1` (centres unmarked) [Example 63] returned a Kd of about 3000 nM.

In turn, `CC1(Cc2cccc(OC(F)(F)F)c2)NC(=O)N(c2cc(Cl)cc(Cl)c2)C1=O` (centres unmarked) [Example 68] returned a Kd of 2580 nM.

As for `O=C1NC(Cc2ccccc2)C(=O)N1c1cc(Cl)c(Cl)c(Cl)c1` (centres unmarked) [Example 70], the Kd amounted to 1890 nM.

In turn, `O=C1NC(Cc2ccccc2)C(=O)N1c1cc(Cl)c(I)c(Cl)c1` (centres unmarked) [Example 71] came in with a dissociation constant Kd of 4380 nM.

In turn, `C[C@@H]1C(=O)N(c2cc(Cl)cc(Cl)c2)C(=O)[C@]1(C)Cc1ccc(Br)cc1` [Example 73] gave a Kd of 340 nM.

Regarding `C[C@H]1C(=O)N(c2cc(Cl)cc(Cl)c2)C(=O)[C@]1(C)Cc1ccccc1` [Example 74], the Kd came to 670 nM.

With `CC1(Cc2ccccc2)CC(=O)N(c2cc(Cl)cc(Cl)c2)C1=O` (centres unmarked) [Example 75], the Kd stood at 290 nM.

Regarding `CC1(Cc2ccc(Br)cc2)NC(=S)N(c2cc(Cl)cc(Cl)c2)C1=S` (centres unmarked) [Example 78], binding was put at a Kd of 340 nM.

Molecule `CN1C(=S)N(c2cc(Cl)cc(Cl)c2)C(=S)C1(C)Cc1ccc(Br)cc1` (centres unmarked) [Example 79] came in with a Kd of 430 nM.

The molecule `O=C1C(Cc2ccccc2)N(Cc2ccccc2)C(=O)N1c1cc(Cl)cc(Cl)c1` (centres unmarked) [Example 84] displayed a Kd of 420 nM.

Molecule `CC(C)(C)OC(=O)CN1C(=O)N(c2cc(Cl)cc(Cl)c2)C(=O)C1(C)Cc1ccccc1` (centres unmarked) [Example 91] gave a Kd of 430 nM.

Regarding `CN1C(=O)N(c2cc(Cl)cc(Cl)c2)C(=O)C1Cc1ccc(C(=O)c2ccccc2)cc1` (centres unmarked) [Example 95], the Kd worked out at 260 nM.

As for `CN(C)CCN1C(=O)N(c2cc(Cl)cc(Cl)c2)C(=O)C1(C)Cc1ccc(Br)cc1` (centres unmarked) [Example 99], the affinity, expressed as Kd, was 520 nM.

In turn, `CN1C(=O)N(c2cccc(Cl)c2)C(=O)[C@@]1(C)Cc1ccc(Br)cc1` [Example 101] came in with a Kd of 680 nM.

On to `C[C@@]1(Cc2ccc(Br)cc2)C(=O)N(c2cc(Cl)cc(Cl)c2)C(=O)N1Cc1cccc(C#N)c1` [Example 104], for which the Kd was determined as 270 nM.

`CCN1C(=O)N(c2cc(Cl)cc(Cl)c2)C(=O)C1(C)Cc1ccc(Br)cc1` (centres unmarked) [Example 105] displayed a Kd of 120 nM.

`CCCN1C(=O)N(c2cc(Cl)cc(Cl)c2)C(=O)C1(C)Cc1ccc(Br)cc1` (centres unmarked) [Example 106]: the affinity, expressed as Kd, was 140 nM.

In turn, `CN(C)C(=O)CN1C(=O)N(c2cc(Cl)cc(Cl)c2)C(=O)[C@@]1(C)Cc1ccc(Br)cc1` [Example 107] displayed a Kd of 490 nM.

For `CN(C)CCN1C(=O)N(c2cc(Cl)cc(Cl)c2)C(=O)[C@@]1(C)Cc1ccc(Br)cc1` [Example 108], the Kd stood at 410 nM.

As for `COc1cccc(CN2C(=O)N(c3cc(Cl)cc(Cl)c3)C(=O)[C@@]2(C)Cc2ccc(Br)cc2)n1` [Example 112], the Kd turned out to be 390 nM.

Regarding `COc1ccc(CN2C(=O)N(c3cc(Cl)cc(Cl)c3)C(=O)[C@@]2(C)Cc2ccc(Br)cc2)cc1` [Example 113], the Kd was found to be 1910 nM.

Molecule `C[C@@]1(Cc2ccc(Br)cc2)C(=O)N(c2cc(Cl)cc(Cl)c2)C(=O)N1Cc1ccccc1C#N` [Example 114] had a Kd of 260 nM.

`C[C@@]1(Cc2ccc(Br)cc2)C(=O)N(c2cc(Cl)cc(Cl)c2)C(=O)N1Cc1ccc(C#N)cc1` [Example 115]: the Kd amounted to 240 nM.

Regarding `C[C@H](O)CN1C(=O)N(c2cc(Cl)cc(Cl)c2)C(=O)[C@@]1(C)Cc1ccc(Br)cc1` [Example 116], the Kd is 190 nM.

In the case of `C[C@@]1(Cc2ccc(Br)cc2)C(=O)N(c2cc(Cl)cc(Cl)c2)C(=O)N1CCCCCCCl` [Example 120], the Kd turned out to be 480 nM.

`COc1ccccc1CN1C(=O)N(c2cc(Cl)cc(Cl)c2)C(=O)[C@@]1(C)Cc1ccc(Br)cc1` [Example 126] yielded a Kd of 810 nM.

In turn, `CC(C)N1C(=O)N(c2cc(Cl)cc(Cl)c2)C(=O)C1(C)Cc1ccc(Br)cc1` (centres unmarked) [Example 139] showed a Kd of 790 nM.

Molecule `Cc1ccccc1CC1(C)C(=O)N(c2cc(Cl)cc(Cl)c2)C(=O)N1C` (centres unmarked) [Example 142] returned a Kd of 430 nM.

Regarding `Cc1cccc(CC2(C)C(=O)N(c3cc(Cl)cc(Cl)c3)C(=O)N2C)c1` (centres unmarked) [Example 143], the affinity, expressed as Kd, was 1200 nM.

As for `Cc1ccc(CC2(C)C(=O)N(c3cc(Cl)cc(Cl)c3)C(=O)N2C)cc1` (centres unmarked) [Example 144], the Kd stood at 350 nM.

`CN1C(=O)N(c2cc(Cl)cc(Cl)c2)C(=O)C1(C)Cc1ccccc1Br` (centres unmarked) [Example 145] came in with a Kd of 1050 nM.

In turn, `CN1C(=O)N(c2cc(Cl)cc(Cl)c2)C(=O)C1(C)Cc1cccc(F)c1` (centres unmarked) [Example 147] registered a Kd of 340 nM.

`Cc1ccccc1CC1(C)C(=O)N(c2cc(Cl)cc(Cl)c2)C(=O)N1C` (centres unmarked) [Example 148] registered a Kd of 500 nM.

Regarding `CC1(Cc2ccccc2)C(=O)N(c2cc(Cl)cc(Cl)c2)C(=O)N1C1CC1` (centres unmarked) [Example 150], the affinity, expressed as Kd, was 510 nM.

`CN1C(=O)N(c2cc(Cl)cc(Cl)c2)C(=O)C1(C)Cc1ccccc1C#N` (centres unmarked) [Example 152] displayed a Kd of 2660 nM.

`CN1C(=O)N(c2cc(Cl)cc(Cl)c2)C(=O)C1(C)Cc1cccc(C#N)c1` (centres unmarked) [Example 153]: the Kd was found to be 2190 nM.

`CN1C(=O)N(c2cc(Cl)cc(Cl)c2)C(=O)C1(C)Cc1cccc(Cl)c1` (centres unmarked) [Example 155] displayed a Kd of 510 nM.

In the case of `CN1C(=O)N(c2cc(Cl)cc(Cl)c2)C(=O)C1(C)Cc1ccccc1Cl` (centres unmarked) [Example 156], the Kd turned out to be 690 nM.

Regarding `CN1C(=O)N(c2cc(Cl)cc(Cl)c2)C(=O)C1(C)Cc1ccccc1` (centres unmarked) [Example 158], the Kd was determined as 690 nM.

As for `CN1C(=O)N(c2cc(Cl)cc(Cl)c2)C(=O)C1(C)Cc1ccc2c(c1)OCO2` (centres unmarked) [Example 160], binding was characterised by a dissociation constant (Kd) of 640 nM.

For the molecule `CN1C(=O)N(c2cc(Cl)cc(Cl)c2)C(=O)C1(C)Cc1ccc2ccccc2n1` (centres unmarked) [Example 161], binding was characterised by a dissociation constant (Kd) of 4560 nM.

For the molecule `Cc1cc(C)cc(CC2(C)C(=O)N(c3cc(Cl)cc(Cl)c3)C(=O)N2C)c1` (centres unmarked) [Example 162], the Kd came to 1050 nM.

Molecule `COc1cccc(CC2(C)C(=O)N(c3cc(Cl)cc(Cl)c3)C(=O)N2C)c1` (centres unmarked) [Example 165] showed a Kd of 1070 nM.

The molecule `COc1ccc(CC2(C)C(=O)N(c3cc(Cl)cc(Cl)c3)C(=O)N2C)cc1` (centres unmarked) [Example 166] displayed a Kd of 280 nM.

`CN1C(=O)N(c2cc(Cl)cc(Cl)c2)C(=O)C1(C)Cc1c(F)c(F)c(F)c(F)c1F` (centres unmarked) [Example 167] displayed a Kd of 600 nM.

`CN1C(=O)N(c2cc(Cl)cc(Cl)c2)C(=O)C1(C)Cc1ccc(C(=O)c2ccccc2)cc1` (centres unmarked) [Example 168] had a Kd of 410 nM.

As for `Cc1ccc(CC2(C)C(=O)N(c3cc(Cl)cc(Cl)c3)C(=O)N2C)cc1` (centres unmarked) [Example 170], binding was put at a Kd of 20 nM.

`COC(=O)c1ccc(CC2(C)C(=O)N(c3cc(Cl)cc(Cl)c3)C(=O)N2C)cc1` (centres unmarked) [Example 174] returned a Kd of 710 nM.

The molecule `COCC1(Cc2ccc(Br)cc2)C(=O)N(c2cc(Cl)cc(Cl)c2)C(=O)N1C` (centres unmarked) [Example 175] showed a Kd of 230 nM.

In turn, `CN1C(=O)N(c2cc(Cl)cc(Cl)c2)C(=O)C1(C)Cc1ccc(S(C)(=O)=O)cc1` (centres unmarked) [Example 176] showed a Kd of 3960 nM.

In turn, `CN1C(=O)N(c2cc(Cl)cc(Cl)c2)C(=O)C1C(O)c1ccccc1` (centres unmarked) [Example 178] gave a Kd of 1170 nM.
